Eight compounds from ChEMBL document CHEMBL4359892, “Discovery of novel indolylarylsulfones as potent HIV-1 NNRTIs via structure-guided scaffold morphing” (Eur J Med Chem, 2019) can be followed below.

Molecules are shown by their SMILES.

Data set [1] deals with Human immunodeficiency virus 1. The experiment in a line: Antiviral activity against HIV-1 3B infected in human MT4 cells assessed as reduction in virus-induced cytopathic effect incubated for 5 days by MTT assay. It is filed as functional, organism-based. The note with it: Human immunodeficiency virus 1, 3B, MT4, 120 h.
Data set [2] deals with Human immunodeficiency virus 1. As to the kind of experiment: Antiviral activity against drug resistant HIV-1 RES056 harboring reverse transcriptase K103N/Y181C double mutant infected in human MT4 cells assessed as reduction in virus-induced cytopathic effect incubated for 5 days by MTT assay. The data set is classed as functional, organism-based. The note with it: Human immunodeficiency virus 1, RES056, MT4, 120 h. A general note: Protection from cytopathic effect is a common read-out in antiviral testing.

Data set [3] in a line: Cytotoxicity against human MT4 cells assessed as reduction in cell viability incubated for 5 days by MTT assay. It is filed as cell-based. Background: Formazan colour is commonly taken as a measure of viable cells.
Data set [4] in a line: Selectivity index, ratio of CC50 for human MT4 cells to EC50 for antiviral activity against HIV IIIB. It is filed as toxicity. To be noted: read-out: Ratio CC50/EC50.
The nature of data set [5]: Selectivity index, ratio of CC50 for human MT4 cells to EC50 for antiviral activity against HIV RES056. It is filed as toxicity. The note with it: read-out: Ratio CC50/EC50.
In data set [6] the test system is Human immunodeficiency virus 1. As to the kind of experiment: Antiviral activity against drug resistant HIV-1 harboring reverse transcriptase E138K mutant infected in human MT4 cells assessed as reduction in virus-induced cytopathic effect incubated for 5 days by MTT assay. To be noted: Human immunodeficiency virus 1, MT4, 120 h. It is filed as functional, organism-based.

The test system of data set [7] is Human immunodeficiency virus 1. The experiment in a line: Antiviral activity against drug resistant HIV-1 harboring reverse transcriptase L100I mutant infected in human MT4 cells assessed as reduction in virus-induced cytopathic effect incubated for 5 days by MTT assay. It is filed as functional, organism-based. The note with it: Human immunodeficiency virus 1, MT4, 120 h.

In data set [8] the test system is Human immunodeficiency virus 1. The experiment in a line: Antiviral activity against drug resistant HIV-1 harboring reverse transcriptase K103N mutant infected in human MT4 cells assessed as reduction in virus-induced cytopathic effect incubated for 5 days by MTT assay. The data set is classed as functional, organism-based. The note with it: Human immunodeficiency virus 1, MT4, 120 h.

The subject of data set [9] is Human immunodeficiency virus 1. As to the kind of experiment: Antiviral activity against drug resistant HIV-1 harboring reverse transcriptase Y181C mutant infected in human MT4 cells assessed as reduction in virus-induced cytopathic effect incubated for 5 days by MTT assay. It is filed as functional, organism-based. The note with it: Human immunodeficiency virus 1, MT4, 120 h.

Data set [10] relates to Human immunodeficiency virus 1. As to the kind of experiment: Antiviral activity against drug resistant HIV-1 harboring reverse transcriptase Y188L mutant infected in human MT4 cells assessed as reduction in virus-induced cytopathic effect incubated for 5 days by MTT assay. It is filed as functional, organism-based. To be noted: Human immunodeficiency virus 1, MT4, 120 h.

Data set [11] has as its system Human immunodeficiency virus 1. As to the kind of experiment: Antiviral activity against drug resistant HIV-1 harboring reverse transcriptase F227L/V106A double mutant infected in human MT4 cells assessed as reduction in virus-induced cytopathic effect incubated for 5 days by MTT assay. The note with it: Human immunodeficiency virus 1, MT4, 120 h. The data set is classed as functional, organism-based.

Data set [12] deals with Human immunodeficiency virus type 1 reverse transcriptase (Human immunodeficiency virus 1, UniProt Q72547). The experiment in a line: Inhibition of HIV1 reverse transcriptase assessed as inhibition of biotin-dUTP incorporation into template incubated for 1 hr by ELISA. For orientation: An ELISA detects its analyte on a solid surface through an enzyme-linked reagent.

Usually EC50 stands for the midpoint of the concentration-response curve. As a reminder, the CC50 is the concentration giving 50% cytotoxicity. Broadly, the IC50 is the concentration needed to halve the response being measured.

As for `Cc1cc(C)cc(S(=O)(=O)c2c(C(=O)NS(=O)(=O)c3ccc(F)cc3)[nH]c3ccc(Cl)cc23)c1`, the EC50 is 2.95 µM in [1]; more than 253 µM in data set [2]; 3.78 µM in data set [6]; 10 µM in data set [7]; 21.6 µM in data set [8]; 45.8 µM in data set [9]. The values for the EC50 in data set [10] and in data set [11] were more than 253 µM and 38.6 µM, respectively. In addition, in data set [3], the CC50 at 120 h was more than 253 µM. For the same compound, the selectivity ratio in [4] is more than 86; in data set [5] it was less than 1.

Regarding `CCOP(=O)(CCNC(=O)c1[nH]c2ccc(Cl)cc2c1S(=O)(=O)c1cc(C)cc(C)c1)OCC`, the 50% effective concentration (EC50) is 1.31 µM in data set [1]; more than 131 µM in [2]; 1.2 µM in data set [6]; 6.81 µM in data set [7]; 3.43 µM in data set [8]; 6.71 µM in data set [9]. For the same compound, the results for the EC50 in data set [10] and in data set [11] were more than 131 µM and 7.25 µM, respectively. In addition, the CC50 at 120 h in data set [3] came to 131 µM. For the same compound, the values for the selectivity ratio in data set [4] and in data set [5] were 100 and less than 1, respectively.

As to `Cc1cc(C)cc(S(=O)(=O)c2c(C(=O)NS(=O)(=O)C(F)(F)F)[nH]c3ccc(Cl)cc23)c1`, the EC50 in [1] is 0.36 µM; in data set [2] it was more than 141 µM; in data set [6], 0.92 µM; in [7], 1.41 µM; in data set [8], 2.48 µM; in data set [9], 5.51 µM. Besides, the EC50 in data set [10] was more than 141 µM; in data set [11], 3.53 µM. Also, in data set [3], the CC50 at 120 h is 141 µM. Further, the selectivity ratio is 393 in [4] and less than 1 in [5].

`Cc1cc(C)cc(S(=O)(=O)c2c(C(=O)N[C@@H]3CCN(CC(N)=O)C3)[nH]c3ccc(Cl)cc23)c1`: the IC50 in [12] came to 1.49 µM. Besides, the EC50 in data set [1] was 0.0098 µM; in data set [2], more than 31 µM. Further, the CC50 at 120 h in data set [3] amounted to 31 µM. The selectivity ratio in data set [4] is 3170; in data set [5], less than 1.

As to `Cc1cc(C)cc(S(=O)(=O)c2c(C(=O)NS(=O)(=O)c3ccc(F)cc3F)[nH]c3ccc(Cl)cc23)c1`, the EC50 was 3.23 µM in [1]; more than 121 µM in [2]; 4.04 µM in [6]; 8.86 µM in data set [7]; 15 µM in data set [8]; more than 121 µM in data set [9]. For the same compound, the EC50 in data set [10] is more than 121 µM; in [11], 30 µM. In data set [3], the CC50 at 120 h stood at 121 µM. Moreover, the selectivity ratio is 37 in [4] and less than 1 in [5].

`Cc1cc(C)cc(S(=O)(=O)c2c(C(=O)NS(=O)(=O)c3ccccc3)[nH]c3ccc(Cl)cc23)c1`: the EC50 is 1.73 µM in data set [1]; more than 167 µM in [2]; 2.01 µM in data set [6]; 2.17 µM in data set [7]; 3.23 µM in data set [8]; 5.33 µM in data set [9]. Besides, the EC50 in data set [10] was more than 167 µM; in data set [11] it was 7.4 µM. Besides, in data set [3], the CC50 at 120 h was 167 µM. For the same compound, the selectivity ratio was 96 in data set [4] and less than 1 in data set [5].

In the case of `Cc1cc(C)cc(S(=O)(=O)c2c(C(N)=O)[nH]c3ccc(Cl)cc23)c1`, the IC50 in data set [12] came out at 0.56 µM. Besides, the EC50 was 0.0041 µM in data set [1]; more than 13 µM in data set [2]; 0.91 µM in [6]; 0.017 µM in data set [7]; 0.018 µM in data set [8]; 0.027 µM in [9]. Further, the EC50 in data set [11] was 0.0096 µM. Further, the CC50 at 120 h in [3] was found to be 13 µM. Also, the selectivity ratio in [4] was 3130; in data set [5], less than 1.

As to `Cc1cn([C@H]2C[C@H](N=[N+]=[N-])[C@@H](CO)O2)c(=O)[nH]c1=O` [ZIDOVUDINE], the EC50 was 0.01 µM in data set [1]; more than 28.1 µM in data set [2]; 0.012 µM in data set [6]; 0.0049 µM in data set [7]; 0.012 µM in data set [8]; 0.0079 µM in data set [9]. For the same compound, the figures for the EC50 in data set [10] and in [11] were 0.0075 µM and 0.0049 µM, respectively. Besides, the CC50 at 120 h in data set [3] was more than 7.49 µM. Also, the results for the selectivity ratio in data set [4] and in [5] were more than 714 and more than 645, respectively.
